Measurements reported in patent publication US20160221948A1, “NITROGEN-CONTAINING SATURATED HETEROCYCLIC COMPOUND” (SUMITOMO CHEMICAL COMPANY, LIMITED, priority 2013, published 2016).

Assays:
[1] = target: human SSTR4 (Homo sapiens, UniProt P31391); test: Evaluation of agonist activities using human SSTR4-stably expressing cells (aequorin luminescence); format: cell-based; set-up: expressed in transfected cells; host or cells: HEK293; details: for SSTR4 agonist activity compared with other compounds: Tables 25 to 27; for EC50: luminescence signal, 1 μmol/L somatostatin taken as 100%
Method: Evaluation of Agonist Activities Using Cells that stably expressing human-derived SSTR4 (human SSTR4-stably expressing cells)
(1) Human SSTR4-Stably Expressing Cells
Human SSTR4-stably expressing cells were prepared, and cultured. Specifically, HEK293 cells, human kidney-derived cells, were used as host cells. By introducing pcDNA3.1 (cat. No. V79020, invitrogen, Carlsbad, Calif., USA) to which human SSTR gene was inserted into HEK293 cells, human SSTR4-stably expressing cell line was obtained. For selection, G418 (cat. No. 16513-84, Nacalai tesque, Japan) was used.
As the culture medium, D-MEM medium (cat. No. 11995, GIBCO, USA), containing 10% FBS and 200 μg/mL G418, was used, the culture was performed in a 225 cm^2 flask (cat. No. 11-006-010, Iwaki, Japan).
At about 80% confluence, the cells were harvested by treating with 20-fold diluted 0.25% Trypsin-EDTA (cat. No. 35554-64, Nacalai, tesque, Japan). The harvested cells were prepared at a reaction medium composed of Hanks Buffer (cat. No. 14065-056, invitrogen, Carlsbad, Calif., USA)/20 mM Hepes (cat. No. 15630-080, invitrogen, Carlsbad, Calif., USA), and 0.1% BSA (cat. No. A7906, Sigma Aldrich, USA) to 70000 cells/mL. Gα16 and apoaequorin were transiently introduced to the harvested cells, and the cells were seeded to a 384 well plate (cat. No. 781090, Greiner, Germany) at about 2000 cells/30 μL/well. On the next day of cell seeding, Coelenterazine H (cat. No. S2011, Promega, USA) was added to each well (10 μL/well) to make a final concentration of 0.5 μmol/L, and the plate was centrifuged. Then, the plate was left at room temperature for 4 hours in shaded state.
(2) Preparation of Test Compounds
DMSO solution of each test compound having 1000-fold larger concentration than the final concentration was prepared. The DMSO solutions were made to have 10-fold concentration than the final concentration with Hanks/20 mmol/L Hepes/0.1% BSA.
(3) Evaluation of Agonist Activity
For detection of luminescence signal due to SSTR4-stimulation, FDSS7000 (manufactured by Hamamatsu Photonics K.K.) was used. To plates having cells and the luminescence substrate, solutions of test compounds were added, then each luminescence signal was measured for 90 seconds, and each relative luminescence unit (RLU) was calculated. Based on luminescence signal from the wells to which a 1 μmol/L somatostatin solution was added taken as 100%, agonist activity of each test compound was evaluated.

[2] = test system: Slc:ddY mice; test: Mouse Y-shaped maze test, scopolamine-induced memory impairment; format: in vivo; details: for spontaneous alternations: Scopolamine HBr 0.6 mg/kg subcutaneous
Method: Evaluation of amelioration in cognitive impairment using mouse Y-shaped maze test (hereinafter, may be called “Y-maze test”)
In the Y-maze test using Slc:ddY mice (male, Japan SLC, Inc.) with body weight of 25-35 g or 27-30 g, when 0.6 mg/kg of Scopolamine HBr (cat. No. S0929, Sigma Aldrich, USA) is subcutaneously administered to mice, memory impairment is caused, and reducing in spontaneous alternation is observed. Accordingly, mice were pre-treated by orally receiving compounds involved with the present invention, and ameliorating action in memory impairment was evaluated. […] (hereinafter, spontaneous alternations in each group in Example 21 are shown: 0.5% MC receiving group, 71.2±3.5; Scopolamine receiving group, 47.5±2.6; 1 mg/kg receiving group, 60.7±2.6; 3 mg/kg receiving group, 64.6±2.2.)

[3] = test system: Slc:ddY mice; test: Mouse novel object recognition test (mORT); format: in vivo; details: 3 mg/kg (oral), administered before the first trial
Method: Evaluation of cognitive function using mouse novel object recognition test (hereinafter, may be called “mORT”)
In the mORT using Slc:ddY mice (male, Japan SLC, Inc.) with body weight of 25-45 g or 35-40 g, memory deterioration to familiar subject depending on the interval time between the first trial (training) and the second trial (test) is observed. If the second trial is performed 24 hours after performing the first trial, significant forgetting is observed. […] […] (discrimination index as indexes for cognitive function are shown: 0.5% MC receiving group, 0.054±0.026; 3 mg/kg receiving group, 0.245±0.066.)

[4] = Pharmacokinetic test (PK test) using rodents; format: in vivo; details: mouse, brain and plasma; mice, 10 mg/kg oral, an hour and 4 hours after; read-out: brain-plasma concentration ratio
Method: Moreover, it was verified, as the results of a pharmacokinetic test (PK test) using rodents, that the compound of the present invention has more excellent in vivo kinetics, central nervous system penetration, and exposure level, compared with the pyrrolidine derivative described in Patent Literature 1. In particular, the following Test Example 8 was performed.
Pharmacokinetic Test (PK Test) Using Rodents
Compounds of the present invention were orally administered to mice at a dose of 10 mg/kg, and an hour and 4 hours after, the plasma and the brain were collected, concentrations of the administered compounds were measured by LC/MS/MS. As well, protein binding rates in the plasma and the brain were measured with equilibrium dialysis method, and concentrations of non-binding compounds were calculated. The brain-plasma concentration ratio was about 5 in any cases of an hour and 4 hours after for compounds obtained in Examples 7, 14, 15, 16, 17, 18, 20, 21, 27, 40, and 50, which indicated excellent central nervous system penetration.

Sequence of human SSTR4 (P31391 whole entry): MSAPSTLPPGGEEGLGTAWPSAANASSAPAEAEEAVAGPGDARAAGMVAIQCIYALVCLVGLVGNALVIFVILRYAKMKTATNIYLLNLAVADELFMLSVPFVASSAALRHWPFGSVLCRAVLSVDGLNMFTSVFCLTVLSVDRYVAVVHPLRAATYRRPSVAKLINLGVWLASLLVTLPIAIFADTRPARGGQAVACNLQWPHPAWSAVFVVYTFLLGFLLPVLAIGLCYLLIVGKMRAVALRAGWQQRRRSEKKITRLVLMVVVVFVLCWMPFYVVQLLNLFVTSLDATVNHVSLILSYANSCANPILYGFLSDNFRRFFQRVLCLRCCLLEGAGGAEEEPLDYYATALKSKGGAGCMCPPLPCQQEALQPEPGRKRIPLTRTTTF

Compound | SSTR4 agonist activity compared with other compounds [1] | spontaneous alternations ([2]; 1 mg/kg oral) | spontaneous alternations ([2]; 3 mg/kg oral) | ameliorating action in memory impairment ([2]; at 1 or 3 mg/kg (oral)) | memory enhancing action [3] | EC50 [1] | Kp [4]
CN1CCC[C@H](C(=O)NC(C)(C)c2cccc3ccccc23)C1 [Example 2, (3S)-1-methyl-N-[2-(naphthalene-1-yl)propane-2-yl]pyperidine-3-carboxamide] | stronger SSTR4 agonist activity | 59.6±3.2 | 65.0±1.8 | significant ameliorating action in memory impairment | a tendency to enhance memory |  | 
CN1CCCC(C(=O)NC(C)(C)c2cc(Cl)cc(Cl)c2)C1 (stereo not shown) [Example 7] | stronger SSTR4 agonist activity |  |  |  |  | 4.3 nM | ~5
Cc1c(Cl)cccc1C(C)(C)NC(=O)C1CCCN(C)C1 (stereo not shown) [Example 14] |  |  |  |  |  | 5.7 nM | ~5
CN1CCCC(C(=O)NC(C)(C)c2cc(Cl)ccc2Cl)C1 (stereo not shown) [Example 15] | stronger SSTR4 agonist activity |  |  |  |  | 3.5 nM | ~5
CN1CCCC(C(=O)NC(C)(C)c2cccc(Cl)c2Cl)C1 (stereo not shown) [Example 16] | stronger SSTR4 agonist activity |  |  |  |  | 2.3 nM | ~5
CN1CCCC(C(=O)NC(C)(C)c2ccc(Cl)cc2Cl)C1 (stereo not shown) [Example 17] | stronger SSTR4 agonist activity |  |  |  |  | 2.3 nM | ~5
CN1CCC[C@H](C(=O)NC(C)(C)c2cc(Cl)cc(Cl)c2)C1 [Example 18] | stronger SSTR4 agonist activity |  |  |  |  | 2 nM | ~5
CN1CCC[C@H](C(=O)NC(C)(C)c2ccc(Cl)cc2Cl)C1 [Example 20, (3S)—N-[2-(2,4-dichlorophenyl)propane-2-yl]-1-methylpiperidine-3-carboxamide] | stronger SSTR4 agonist activity |  |  |  |  | 1.3 nM | ~5
Cc1c(Cl)cccc1C(C)(C)NC(=O)[C@H]1CCCN(C)C1 [Example 27, (3S)—N-[2-(3-chloro-2-methylphenyl)propane-2-yl]-1-methylpiperidine-3-carboxamide] | stronger SSTR4 agonist activity |  |  |  |  | 2.1 nM | ~5
CN1CCC[C@H](C(=O)NC(C)(C)c2ccccc2Cl)C1 [Example 40, (3S)—N-[2-(2-chlorophenyl)propane-2-yl]-1-methylpiperidine-3-carboxamide] |  |  |  |  |  | 4.8 nM | ~5
Cc1ccc(Cl)cc1C(C)(C)NC(=O)[C@H]1CCCN(C)C1 [Example 50, (3S)—N-[2-(5-chloro-2-methylphenyl)propane-2-yl]-1-methylpiperidine-3-carboxamide] |  |  |  |  |  | 4.3 nM | ~5
CC(C)N1CCC[C@H](C(=O)NC(C)(C)c2ccccc2Cl)C1 [Example 121] |  |  |  |  |  | 11.7 nM | 
[2H]C([2H])([2H])N1CCC[C@H](C(=O)NC(C)(C)c2ccccc2Cl)C1 [Example 122] |  |  |  |  |  | 3.6 nM | 
